How the values were obtained:
Test in all cases: KINOMEscan
Type in all cases: binding
Conditions in all cases: read-out: percent control
[1] = target: AMPK-alpha1 (Homo sapiens (Human), UniProt Q13131)
From the text: (§1) Example 2. In Vitro Kinase Selectivity Profiling of the Compounds of the Present Disclosure

[2] = target: AURKC (Homo sapiens (Human), UniProt Q9UQB9)
From the text: as §1

[3] = target: BMX (Homo sapiens (Human), UniProt P51813)
From the text: as §1

[4] = target: BRSK2 (Homo sapiens (Human), UniProt Q8IWQ3)
From the text: as §1

[5] = target: CAMK1 (Homo sapiens (Human), UniProt Q14012)
From the text: as §1

[6] = target: CDK2 (Homo sapiens (Human), UniProt P24941)
From the text: as §1

[7] = target: CDK5 (Homo sapiens (Human), UniProt Q00535)
Sequence of CDK5 (Q00535 whole entry): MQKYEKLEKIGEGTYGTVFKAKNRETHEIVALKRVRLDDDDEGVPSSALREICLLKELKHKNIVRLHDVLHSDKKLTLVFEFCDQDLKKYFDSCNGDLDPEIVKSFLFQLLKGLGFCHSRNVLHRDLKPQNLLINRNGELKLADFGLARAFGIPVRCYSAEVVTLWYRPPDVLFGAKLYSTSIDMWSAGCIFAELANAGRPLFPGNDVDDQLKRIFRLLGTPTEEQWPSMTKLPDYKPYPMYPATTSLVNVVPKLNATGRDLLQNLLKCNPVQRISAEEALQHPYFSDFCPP
From the text: as §1

[8] = target: CDKL2 (Homo sapiens (Human), UniProt Q92772)
Sequence of CDKL2 (Q92772 whole entry): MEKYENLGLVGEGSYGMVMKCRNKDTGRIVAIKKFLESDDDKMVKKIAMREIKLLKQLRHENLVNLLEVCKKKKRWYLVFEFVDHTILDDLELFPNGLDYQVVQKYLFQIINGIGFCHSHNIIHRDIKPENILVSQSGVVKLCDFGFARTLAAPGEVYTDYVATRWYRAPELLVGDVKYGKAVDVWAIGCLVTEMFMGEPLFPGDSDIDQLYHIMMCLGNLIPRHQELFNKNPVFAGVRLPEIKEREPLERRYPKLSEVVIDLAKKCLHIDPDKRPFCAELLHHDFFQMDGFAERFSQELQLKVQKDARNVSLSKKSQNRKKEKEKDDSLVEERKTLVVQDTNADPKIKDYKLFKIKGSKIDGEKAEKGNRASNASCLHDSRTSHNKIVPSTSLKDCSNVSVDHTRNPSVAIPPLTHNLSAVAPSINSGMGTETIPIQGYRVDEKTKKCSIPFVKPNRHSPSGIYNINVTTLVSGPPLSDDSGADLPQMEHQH
From the text: as §1

[9] = target: CDKL5 (Homo sapiens (Human), UniProt O76039)
From the text: as §1

[10] = target: CSF1R-autoinhibited (Homo sapiens (Human), UniProt P07333)
From the text: as §1

[11] = target: CSNK2A2 (Homo sapiens (Human), UniProt P19784)
From the text: as §1

[12] = target: DAPK3 (Homo sapiens (Human), UniProt O43293)
Sequence of DAPK3 (O43293 whole entry): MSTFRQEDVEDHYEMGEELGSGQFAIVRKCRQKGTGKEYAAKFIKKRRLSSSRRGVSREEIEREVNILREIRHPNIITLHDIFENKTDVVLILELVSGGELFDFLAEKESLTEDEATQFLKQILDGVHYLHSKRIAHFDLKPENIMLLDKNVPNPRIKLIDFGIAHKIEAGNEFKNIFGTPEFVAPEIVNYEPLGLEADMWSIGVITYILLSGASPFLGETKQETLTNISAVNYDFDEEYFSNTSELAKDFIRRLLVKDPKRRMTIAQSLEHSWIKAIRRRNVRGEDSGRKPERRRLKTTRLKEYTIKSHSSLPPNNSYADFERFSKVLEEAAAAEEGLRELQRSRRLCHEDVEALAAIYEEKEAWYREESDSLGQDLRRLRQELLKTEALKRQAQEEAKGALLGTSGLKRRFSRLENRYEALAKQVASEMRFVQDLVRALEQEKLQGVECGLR
From the text: as §1

[13] = target: DCAMKL3 (Homo sapiens (Human), UniProt Q9C098)
From the text: as §1

[14] = target: EGFR(L747-S752del, P753S) (Homo sapiens (Human), UniProt P00533, DEL747-752/P753S)
From the text: as §1

[15] = target: EGFR(S752-I759del) (Homo sapiens (Human), UniProt P00533, DEL752-759)
From the text: as §1

[16] = target: FAK (Homo sapiens (Human), UniProt Q05397)
From the text: as §1

[17] = target: FLT3 (Homo sapiens (Human), UniProt P36888)
From the text: as §1

[18] = target: FLT4 (Homo sapiens (Human), UniProt P35916)
Sequence of FLT4 (P35916 25-1363): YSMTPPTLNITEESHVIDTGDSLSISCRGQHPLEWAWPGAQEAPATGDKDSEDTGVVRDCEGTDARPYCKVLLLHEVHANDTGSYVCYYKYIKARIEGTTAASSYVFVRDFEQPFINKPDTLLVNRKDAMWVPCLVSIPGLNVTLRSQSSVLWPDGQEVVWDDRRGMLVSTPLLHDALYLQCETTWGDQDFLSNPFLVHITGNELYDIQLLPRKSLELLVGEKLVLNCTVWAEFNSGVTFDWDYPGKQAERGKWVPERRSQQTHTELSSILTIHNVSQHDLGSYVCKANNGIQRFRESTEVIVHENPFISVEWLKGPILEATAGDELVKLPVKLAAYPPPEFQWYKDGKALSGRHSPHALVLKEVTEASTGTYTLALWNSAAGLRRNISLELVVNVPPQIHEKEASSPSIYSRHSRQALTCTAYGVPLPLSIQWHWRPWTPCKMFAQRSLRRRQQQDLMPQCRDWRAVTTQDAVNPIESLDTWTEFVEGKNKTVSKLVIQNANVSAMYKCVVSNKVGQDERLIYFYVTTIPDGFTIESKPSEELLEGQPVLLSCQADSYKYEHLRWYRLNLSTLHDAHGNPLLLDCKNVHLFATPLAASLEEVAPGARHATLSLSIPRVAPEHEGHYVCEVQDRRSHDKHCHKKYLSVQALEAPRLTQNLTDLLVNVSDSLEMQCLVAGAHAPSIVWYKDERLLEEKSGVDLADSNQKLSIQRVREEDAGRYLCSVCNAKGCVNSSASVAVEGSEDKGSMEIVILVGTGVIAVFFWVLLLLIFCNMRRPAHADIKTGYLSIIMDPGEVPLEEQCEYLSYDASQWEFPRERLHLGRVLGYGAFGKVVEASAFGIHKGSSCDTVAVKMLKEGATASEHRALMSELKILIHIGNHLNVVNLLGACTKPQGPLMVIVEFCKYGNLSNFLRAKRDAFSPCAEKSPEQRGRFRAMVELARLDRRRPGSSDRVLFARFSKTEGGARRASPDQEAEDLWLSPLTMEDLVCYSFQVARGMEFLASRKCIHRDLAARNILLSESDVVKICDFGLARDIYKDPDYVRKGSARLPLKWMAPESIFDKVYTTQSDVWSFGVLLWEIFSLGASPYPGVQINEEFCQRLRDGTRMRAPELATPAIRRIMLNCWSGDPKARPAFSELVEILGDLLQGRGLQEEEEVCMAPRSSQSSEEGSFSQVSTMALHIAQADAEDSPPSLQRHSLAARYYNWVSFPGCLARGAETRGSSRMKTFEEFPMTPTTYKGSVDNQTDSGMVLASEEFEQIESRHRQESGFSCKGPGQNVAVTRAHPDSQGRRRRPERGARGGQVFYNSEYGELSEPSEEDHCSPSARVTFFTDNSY
From the text: as §1

[19] = target: IKK-alpha (Homo sapiens (Human), UniProt O15111)
From the text: as §1

[20] = target: JAK1(JH1domain-catalytic) (Homo sapiens (Human), UniProt P23458)
Sequence of JAK1(JH1domain-catalytic) (P23458 875-1153 limits assumed): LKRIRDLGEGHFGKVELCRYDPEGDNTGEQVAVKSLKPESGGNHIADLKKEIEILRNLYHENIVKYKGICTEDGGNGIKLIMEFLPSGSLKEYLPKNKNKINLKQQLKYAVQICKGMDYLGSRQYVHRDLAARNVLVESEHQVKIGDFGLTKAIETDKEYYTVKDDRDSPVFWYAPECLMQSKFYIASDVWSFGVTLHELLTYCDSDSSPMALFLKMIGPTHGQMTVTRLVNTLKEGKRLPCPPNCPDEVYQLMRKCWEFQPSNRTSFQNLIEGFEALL
From the text: as §1

[21] = target: JAK3(JH1domain-catalytic) (Homo sapiens (Human), UniProt P52333)
From the text: as §1

[22] = target: KIT (Homo sapiens (Human), UniProt P10721)
From the text: as §1

[23] = target: KIT(L576P) (Homo sapiens (Human), UniProt P10721, L576P)
From the text: as §1

[24] = target: MAP4K2 (Homo sapiens (Human), UniProt Q12851)
From the text: as §1

[25] = target: MAPKAPK5 (Homo sapiens (Human), UniProt Q8IW41)
From the text: as §1

[26] = target: MARK1 (Homo sapiens (Human), UniProt Q9P0L2)
From the text: as §1

[27] = target: MLCK (Homo sapiens (Human), UniProt Q32MK0)
From the text: as §1

[28] = target: MTOR (Homo sapiens (Human), UniProt P42345)
From the text: as §1

[29] = target: PIK3CA(E545K) (Homo sapiens (Human), UniProt P42336, E545K)
From the text: as §1

[30] = target: PIK3CG (Homo sapiens (Human), UniProt P48736)
Sequence of PIK3CG (P48736 whole entry): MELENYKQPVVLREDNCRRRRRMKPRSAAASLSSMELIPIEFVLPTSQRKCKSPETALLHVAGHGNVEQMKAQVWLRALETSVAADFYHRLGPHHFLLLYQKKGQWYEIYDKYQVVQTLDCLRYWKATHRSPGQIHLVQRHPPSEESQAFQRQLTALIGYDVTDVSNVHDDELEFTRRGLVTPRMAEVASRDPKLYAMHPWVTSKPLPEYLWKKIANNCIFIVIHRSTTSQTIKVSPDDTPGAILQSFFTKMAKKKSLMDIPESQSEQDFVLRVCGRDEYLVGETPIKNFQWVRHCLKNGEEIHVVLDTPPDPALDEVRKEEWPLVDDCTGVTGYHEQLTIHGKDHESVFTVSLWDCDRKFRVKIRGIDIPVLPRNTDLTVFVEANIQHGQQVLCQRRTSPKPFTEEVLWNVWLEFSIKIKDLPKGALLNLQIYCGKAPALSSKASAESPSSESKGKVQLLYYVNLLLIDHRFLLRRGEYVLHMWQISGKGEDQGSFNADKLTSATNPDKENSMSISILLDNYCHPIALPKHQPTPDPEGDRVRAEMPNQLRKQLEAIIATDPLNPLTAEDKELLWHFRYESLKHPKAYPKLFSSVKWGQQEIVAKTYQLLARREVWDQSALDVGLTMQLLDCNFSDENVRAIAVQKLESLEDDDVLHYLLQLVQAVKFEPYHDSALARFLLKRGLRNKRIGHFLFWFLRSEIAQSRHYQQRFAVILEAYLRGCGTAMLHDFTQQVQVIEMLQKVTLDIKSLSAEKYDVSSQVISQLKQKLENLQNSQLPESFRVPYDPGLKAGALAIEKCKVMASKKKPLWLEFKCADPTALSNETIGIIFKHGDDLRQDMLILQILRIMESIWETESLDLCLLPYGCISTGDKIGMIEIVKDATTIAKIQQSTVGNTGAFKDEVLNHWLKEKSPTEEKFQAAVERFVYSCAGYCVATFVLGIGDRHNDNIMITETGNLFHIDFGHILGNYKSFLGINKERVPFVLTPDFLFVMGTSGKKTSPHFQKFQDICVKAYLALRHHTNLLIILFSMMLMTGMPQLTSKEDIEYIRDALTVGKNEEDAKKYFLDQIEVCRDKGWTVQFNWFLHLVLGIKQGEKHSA
From the text: as §1

[31] = target: PRKD2 (Homo sapiens (Human), UniProt Q9BZL6)
From the text: as §1

[32] = target: PRKR (Homo sapiens (Human), UniProt P19525)
From the text: as §1

[33] = target: RIOK3 (Homo sapiens (Human), UniProt O14730)
From the text: as §1

[34] = target: ROS1 (Homo sapiens (Human), UniProt P08922)
From the text: as §1

[35] = target: RPS6KA4(Kin.Dom.2-terminal) (Homo sapiens (Human), UniProt O75676)
Sequence of RPS6KA4(Kin.Dom.2-terminal) (O75676 411-674 limits assumed): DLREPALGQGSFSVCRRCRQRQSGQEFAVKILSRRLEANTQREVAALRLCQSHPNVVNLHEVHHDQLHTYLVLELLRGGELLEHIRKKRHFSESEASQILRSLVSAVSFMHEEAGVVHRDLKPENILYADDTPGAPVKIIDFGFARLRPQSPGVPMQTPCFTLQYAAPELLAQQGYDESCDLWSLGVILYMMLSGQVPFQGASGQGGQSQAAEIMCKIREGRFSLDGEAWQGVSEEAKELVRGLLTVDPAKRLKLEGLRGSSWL
From the text: as §1

[36] = target: RSK2(Kin.Dom.1-N-terminal) (Homo sapiens (Human), UniProt P51812)
From the text: as §1

[37] = target: SRPK1 (Homo sapiens (Human), UniProt Q96SB4)
Sequence of SRPK1 (Q96SB4 whole entry): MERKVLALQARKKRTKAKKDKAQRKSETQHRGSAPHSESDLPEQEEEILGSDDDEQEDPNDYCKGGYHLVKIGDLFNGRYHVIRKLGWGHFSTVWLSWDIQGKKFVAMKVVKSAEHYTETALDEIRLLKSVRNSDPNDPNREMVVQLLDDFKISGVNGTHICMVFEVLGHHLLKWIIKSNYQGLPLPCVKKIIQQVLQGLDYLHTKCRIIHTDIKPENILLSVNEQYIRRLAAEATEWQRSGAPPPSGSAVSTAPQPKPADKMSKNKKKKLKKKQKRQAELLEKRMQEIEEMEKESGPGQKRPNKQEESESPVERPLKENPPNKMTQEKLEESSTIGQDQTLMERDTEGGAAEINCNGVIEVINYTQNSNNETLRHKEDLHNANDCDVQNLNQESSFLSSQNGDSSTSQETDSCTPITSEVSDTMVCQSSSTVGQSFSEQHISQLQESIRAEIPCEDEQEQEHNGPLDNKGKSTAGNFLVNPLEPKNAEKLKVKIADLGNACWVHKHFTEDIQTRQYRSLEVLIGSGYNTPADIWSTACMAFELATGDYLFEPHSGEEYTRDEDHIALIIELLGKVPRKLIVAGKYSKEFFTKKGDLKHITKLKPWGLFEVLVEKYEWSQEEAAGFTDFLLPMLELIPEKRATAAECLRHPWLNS
From the text: as §1

[38] = target: TNK2 (Homo sapiens (Human), UniProt Q07912)
From the text: as §1

[39] = target: YANK1 (Homo sapiens (Human), UniProt Q8WU08)
From the text: as §1

[40] = target: p38-gamma (Homo sapiens (Human), UniProt P53778)
From the text: as §1

| SMILES | remaining binding at 1 µM [1] | remaining binding at 1 µM [2] | remaining binding at 1 µM [3] | remaining binding at 1 µM [4] | remaining binding at 1 µM [5] | remaining binding at 1 µM [6] | remaining binding at 1 µM [7] | remaining binding at 1 µM [8] | remaining binding at 1 µM [9] | remaining binding at 1 µM [10] | remaining binding at 1 µM [11] | remaining binding at 1 µM [12] | remaining binding at 1 µM [13] | remaining binding at 1 µM [14] | remaining binding at 1 µM [15] | remaining binding at 1 µM [16] | remaining binding at 1 µM [17] | remaining binding at 1 µM [18] | remaining binding at 1 µM [19] | remaining binding at 1 µM [20] | other results |
| --- | --- | --- | --- | --- | --- | --- | --- | --- | --- | --- | --- | --- | --- | --- | --- | --- | --- | --- | --- | --- | --- |
| CCN1CCN(Cc2ccc(Nc3nc4ccc(Oc5ccnc(NC(C)=O)c5)cc4n3C)cc2C(F)(F)F)CC1 [Compound I-2] | 93% | 19% | 100% | 100% | 83% | 100% | 97% | 1.9% | 96% | 52% | 82% | 76% | 85% | 80% | 100% | 98% | 15% | 0.5% | 100% | 30% | remaining binding at 1 µM [21]: 84%; remaining binding at 1 µM [22]: 0%; remaining binding at 1 µM [23]: 0.2%; remaining binding at 1 µM [24]: 100%; remaining binding at 1 µM [25]: 99%; remaining binding at 1 µM [26]: 98%; remaining binding at 1 µM [27]: 100%; remaining binding at 1 µM [28]: 100%; remaining binding at 1 µM [29]: 80%; remaining binding at 1 µM [30]: 100%; remaining binding at 1 µM [31]: 92%; remaining binding at 1 µM [32]: 39%; remaining binding at 1 µM [33]: 22%; remaining binding at 1 µM [34]: 73%; remaining binding at 1 µM [35]: 88%; remaining binding at 1 µM [36]: 95%; remaining binding at 1 µM [37]: 50%; remaining binding at 1 µM [38]: 94%; remaining binding at 1 µM [39]: 100%; remaining binding at 1 µM [40]: 58% |
| CCN1CCN(Cc2ccc(Nc3nc4ccc(Oc5ccnc(NC(C)=O)c5)c(C)c4n3C)cc2C(F)(F)F)CC1 [Compound I-6, N-(4-(2-(4-((4-ethylpiperazin-1-yl)methyl)-3-(trifluoromethyl)phenylamino)-1,7-dimethyl-1H-benzo[d]imidazol-6-yloxy)pyridin-2-yl)acetamide] | 95% | 70% | 91% | 74% | 93% | 86% | 90% | 0.5% | 92% | 68% | 100% | 99% | 95% | 94% | 94% | 94% | 1% | 0.7% | 75% | 40% | remaining binding at 1 µM [21]: 72%; remaining binding at 1 µM [22]: 0.55%; remaining binding at 1 µM [23]: 0%; remaining binding at 1 µM [24]: 68%; remaining binding at 1 µM [25]: 83%; remaining binding at 1 µM [26]: 92%; remaining binding at 1 µM [27]: 97%; remaining binding at 1 µM [28]: 100%; remaining binding at 1 µM [29]: 97%; remaining binding at 1 µM [30]: 95%; remaining binding at 1 µM [31]: 100%; remaining binding at 1 µM [32]: 64%; remaining binding at 1 µM [33]: 100%; remaining binding at 1 µM [34]: 43%; remaining binding at 1 µM [35]: 89%; remaining binding at 1 µM [36]: 83%; remaining binding at 1 µM [37]: 83%; remaining binding at 1 µM [38]: 100%; remaining binding at 1 µM [39]: 93%; remaining binding at 1 µM [40]: 62% |

From patent US12522583B2, “Benzimidazole derivatives and aza-benzimidazole derivatives as Janus kinase 2 inhibitors and uses thereof” (Dana-Farber Cancer Institute, Inc., priority 2018, dated 2026)
